In US10023484B2, “Use of peracetic acid/hydrogen peroxide and peroxide-reducing agents for treatment of drilling fluids, frac fluids, flowback water and disposal water” (Ecolab USA Inc., priority 2012, dated 2018):

What was measured:
fracking water mixtures [1] = assay: Micro efficacy: POAA dosed for 30 ppm residual versus POAA pretreated with catalase (Example 8); assay type: cell-based
Experimental: A micro efficacy comparison of POAA added at levels to target 30 ppm POAA residuals at 5 minutes versus POAA pretreated with catalase was conducted as set forth in Table 12.

[2] = Titration of POAA consumption in water mixtures (Example 6); assay type: physicochemical; settings: 1 minute
[3] = Effect of catalase and treatment sequence on peracid stability in 80/20 water blends (Example 10); assay type: physicochemical; settings: theoretical initial POAA 82 ppm
Text: The effect of catalase on the peracid stability within treated waters was further evaluated. Water blends of 80/20 (80% fresh water/20% produced water) were employed to analyze the impact on various treatment sequences set forth in Table 14.
Due to the efficacious results shown in FIG. 15, the same methods were used to further evaluate a pretreatment using a lower concentration of the catalase as shown in Table 15.

[4] = test system: Pseudomonas aeruginosa ATCC 15442; assay: Micro efficacy at 30 ppm POAA EnviroSan with/without catalase, with/without water pretreatment (Example 7); assay type: cell-based; settings: no pretreatment, 30 ppm PAA
Experimental: Additional micro efficacy performance was evaluated to confirm the improved micro efficacy observed in Example 6 when using increasing amounts of produced water with the dosing static initial concentrations of POAA (30 ppm or 40 ppm) with catalase. Improved micro efficacy with increased amounts of produced water present in a mixture is a highly counterintuitive result and was unexpected. Under normal conditions, it would be expected to have decreased micro efficacy as the amount of produced water (e.g. recycled) increases and the amount of POAA remains static as a result of the increased contamination found in produced water as opposed to fresh water sources. As a result, subsequent evaluation observed the activity of the water itself against a spiked culture of P. aeruginosa over a 1 hour exposure period to determine whether the produced water itself has an antimicrobial present.
All water mixtures were treated with an initial concentration of 30 ppm POAA EnviroSan, both with and without the addition of catalase. The data set evaluates whether there is a significant difference in micro activity generated between treatments of EnviroSan alone vs. EnviroSan pre-reduced with catalase.
All ratios of fracking water mixtures tested (100/0, 90/10, 80/20 & 70/30) were freshly mixed solutions, as well as solutions mixed and pretreated with 500 ppm EnviroSan product more than 1 hour before the start of the micro evaluation, in order to observe if a pretreatment step is of value for micro performance compared to those mixtures not pretreated. The test system (P. aeruginosa and natural water) described in Example 5 was again utilized. Water mixtures as outlined in Table 9 were provided (showing the percentage of 100 mL of each water sample type).
The testing methods of Example 5 were utilized for the chemically treated water samples, differing only in the combination of the 10 mL inoculated water mixtures with appropriate volumes of the EnviroSan with or without catalase to achieve 30 ppm POAA residual to each test tube in timed intervals and mixed. The methods of Example 5 were employed to make the EnviroSan with catalase stock solutions. In comparison, for the water samples that were not chemically treated, 9.9 mL of test water mixture was dispensed into 2 individual test tubes. 0.10 mL of an approximate 10^8 CFU/mL culture of P. aeruginosa was added in timed intervals and mixed thoroughly. Then 1 mL samples were neutralized in 9 mL of 0.5% sodium thiosulfate, followed by serial dilution and enumeration after 2.5 minutes, 5 minutes and 60 minute exposure times.
In addition, data for enumeration of water samples for antimicrobial activity against P. aeruginosa over 60 minutes exposure are also summarized in Table 10.

fracking water mixtures [5] = assay: Micro efficacy baseline in fracking water mixtures without catalase (Example 3); assay type: cell-based
Experimental: The impact of water pretreatment with 500 ppm of the EnviroSan product (75 ppm POAA) on micro efficacy in various fracking water mixtures were evaluated. The example represents a baseline data set of various water treatment options according to the invention. Table 2 and FIG. 3 show the average log reduction in various slick water treatments with varying ppm PAA (without any catalase treatment or pretreatment), representing a baseline data set.

[6] = Pretreated, catalase CA 400 5.8 ppm
[7] = Simult. Add, catalase CA 400 10 ppm
[8] = Simult. Add, catalase CA 400 100 ppm

Question: What does the source list for `CC(=O)OO` [POAA, peracetic acid]?
Answer: Avg. Log10 Reduction (fracking water mixtures [1]; 10% reuse H2O, 30 ppm PAA, Catalase, 2.5 minutes): 5.29; Avg. Log10 Reduction (fracking water mixtures [1]; 10% reuse H2O, 30 ppm PAA, Catalase, 5 minutes): 5.96; Avg. Log10 Reduction (fracking water mixtures [1]; 10% reuse H2O, 46 ppm PAA, NO Catalase, 2.5 minutes): 4.32; Avg. Log10 Reduction (fracking water mixtures [1]; 10% reuse H2O, 46 ppm PAA, NO Catalase, 5 minutes): 4.72; Avg. Log10 Reduction (fracking water mixtures [1]; 20% reuse H2O, 30 ppm PAA, Catalase, 2.5 minutes): 5.73; Avg. Log10 Reduction (fracking water mixtures [1]; 20% reuse H2O, 30 ppm PAA, Catalase, 5 minutes): 6.36; Avg. Log10 Reduction (fracking water mixtures [1]; 20% reuse H2O, 86 ppm PAA, NO Catalase, 2.5 minutes): 4.57; Avg. Log10 Reduction (fracking water mixtures [1]; 20% reuse H2O, 86 ppm PAA, NO Catalase, 5 minutes): 4.64; Avg. Log10 Reduction (fracking water mixtures [1]; 30% reuse H2O, 30 ppm PAA, Catalase, 2.5 minutes): 5.30; Avg. Log10 Reduction (fracking water mixtures [1]; 30% reuse H2O, 30 ppm PAA, Catalase, 5 minutes): 5.98; Avg. Log10 Reduction (fracking water mixtures [1]; 30% reuse H2O, 138 ppm PAA, NO Catalase, 2.5 minutes): 4.12; Avg. Log10 Reduction (fracking water mixtures [1]; 30% reuse H2O, 138 ppm PAA, NO Catalase, 5 minutes): 5.00; Actual Titrated Concentration (ppm POAA) ([2]; 70% Fresh/30% Produced, desired 30 ppm POAA): 7 ppm; Actual Titrated Concentration (ppm POAA) ([2]; 70% Fresh/30% Produced, desired 40 ppm POAA): 12 ppm; Actual Titrated Concentration (ppm POAA) ([2]; 80% Fresh/20% Produced, desired 30 ppm POAA): 13 ppm; Actual Titrated Concentration (ppm POAA) ([2]; 80% Fresh/20% Produced, desired 40 ppm POAA): 21 ppm; Actual Titrated Concentration (ppm POAA) ([2]; 90% Fresh/10% Produced, desired 30 ppm POAA): 21 ppm; Actual Titrated Concentration (ppm POAA) ([2]; 90% Fresh/10% Produced, desired 40 ppm POAA): 30 ppm; POAA Meas'd. at 1 min. ([3]; NA, catalase 0 ppm): 56 ppm; POAA Meas'd. at 4 min. ([3]; NA, catalase 0 ppm): 31 ppm; POAA Meas'd. at 5 min. ([3]; NA, catalase 0 ppm): 23 ppm; POAA Meas'd. at 6 min. ([3]; NA, catalase 0 ppm): 17 ppm; POAA Meas'd. at 1 min. [3, 6]: 76 ppm; POAA Meas'd. at 4 min. [3, 6]: 75 ppm; POAA Meas'd. at 5 min. [3, 6]: 75 ppm; POAA Meas'd. at 6 min. [3, 6]: 75 ppm; POAA Meas'd. at 1 min. [3, 7]: 63 ppm; POAA Meas'd. at 4 min. [3, 7]: 34 ppm; POAA Meas'd. at 5 min. [3, 7]: 31 ppm; POAA Meas'd. at 6 min. [3, 7]: 26 ppm; POAA Meas'd. at 1 min. [3, 8]: 66 ppm; POAA Meas'd. at 4 min. [3, 8]: 61 ppm; POAA Meas'd. at 5 min. [3, 8]: 65 ppm; POAA Meas'd. at 6 min. [3, 8]: 58 ppm; Avg. Log10 Reduction ([4]; 0% reuse H2O, Catalase, 2.5 minutes): 4.62; Avg. Log10 Reduction ([4]; 0% reuse H2O, Catalase, 5 minutes): 6.22; Avg. Log10 Reduction ([4]; 0% reuse H2O, NO Catalase, 2.5 minutes): 4.64; Avg. Log10 Reduction ([4]; 0% reuse H2O, NO Catalase, 5 minutes): 6.32; Avg. Log10 Reduction ([4]; 10% reuse H2O, Catalase, 2.5 minutes): 5.29; Avg. Log10 Reduction ([4]; 10% reuse H2O, Catalase, 5 minutes): 5.96; Avg. Log10 Reduction ([4]; 10% reuse H2O, NO Catalase, 2.5 minutes): 3.09; Avg. Log10 Reduction ([4]; 10% reuse H2O, NO Catalase, 5 minutes): 3.91; Avg. Log10 Reduction ([4]; 20% reuse H2O, Catalase, 2.5 minutes): 5.73; Avg. Log10 Reduction ([4]; 20% reuse H2O, Catalase, 5 minutes): 6.36; Avg. Log10 Reduction ([4]; 20% reuse H2O, NO Catalase, 2.5 minutes): 2.19; Avg. Log10 Reduction ([4]; 20% reuse H2O, NO Catalase, 5 minutes): 2.38; Avg. Log10 Reduction ([4]; 30% reuse H2O, Catalase, 2.5 minutes): 5.30; Avg. Log10 Reduction ([4]; 30% reuse H2O, Catalase, 5 minutes): 5.98; Avg. Log10 Reduction ([4]; 30% reuse H2O, NO Catalase, 2.5 minutes): 1.88; Avg. Log10 Reduction ([4]; 30% reuse H2O, NO Catalase, 5 minutes): 1.93; Avg. Log10 Reduction (fracking water mixtures [5]; 75 ppm PAA pretreatment, 10% reuse H2O, 29 ppm POAA, NO catalase, 2.5 minutes): 6.45; Avg. Log10 Reduction (fracking water mixtures [5]; 75 ppm PAA pretreatment, 10% reuse H2O, 29 ppm POAA, NO catalase, 5 minutes): 6.71; Avg. Log10 Reduction (fracking water mixtures [5]; 75 ppm PAA pretreatment, 20% reuse H2O, 47 ppm PAA, NO catalase, 2.5 minutes): 6.42; Avg. Log10 Reduction (fracking water mixtures [5]; 75 ppm PAA pretreatment, 20% reuse H2O, 47 ppm PAA, NO catalase, 5 minutes): 6.55; Avg. Log10 Reduction (fracking water mixtures [5]; 75 ppm PAA pretreatment, 30% reuse H2O, 86 ppm POAA, NO catalase, 2.5 minutes): 6.47; Avg. Log10 Reduction (fracking water mixtures [5]; 75 ppm PAA pretreatment, 30% reuse H2O, 86 ppm POAA, NO catalase, 5 minutes): 6.41; Avg. Log10 Reduction (fracking water mixtures [5]; no holding tank pretreatment, 0% reuse H2O, 22 ppm POAA, 2.5 minutes): 5.53; Avg. Log10 Reduction (fracking water mixtures [5]; no holding tank pretreatment, 0% reuse H2O, 22 ppm POAA, 5 minutes): 5.75; Avg. Log10 Reduction (fracking water mixtures [5]; no pretreatment, 10% reuse H2O, 36 ppm POAA, 2.5 minutes): 4.32; Avg. Log10 Reduction (fracking water mixtures [5]; no pretreatment, 10% reuse H2O, 36 ppm POAA, 5 minutes): 4.72; Avg. Log10 Reduction (fracking water mixtures [5]; no pretreatment, 20% reuse H2O, 86 ppm POAA, 2.5 minutes): 4.57; Avg. Log10 Reduction (fracking water mixtures [5]; no pretreatment, 20% reuse H2O, 86 ppm POAA, 5 minutes): 4.64; Avg. Log10 Reduction (fracking water mixtures [5]; no pretreatment, 30% reuse H2O, 138 ppm POAA, 2.5 minutes): 4.12; Avg. Log10 Reduction (fracking water mixtures [5]; no pretreatment, 30% reuse H2O, 138 ppm POAA, 5 minutes): 5.00
